In PMC9412300, “In Vitro Evaluation and Mitigation of Niclosamide’s Liabilities as a COVID-19 Treatment” (Vaccines, 2022):
Values joined by “and” are separate entries in the source; they are usually repeats but may differ in a detail not shown here. Equal entries are not always repeated. Where two headings read alike, the source gives them in different places.

Columns and labels:
SARS-CoV-2 WA1 variant = test: microbe, parasite or virus in culture; assay type: cell-based
[1] = test system: SARS-CoV-2 B.1.1.7 variant; test: microbe, parasite or virus in culture; assay type: cell-based; settings: for IC50: read-out: Vero-E6 (B.1.1.7) IC50
[2] = test system: SARS-CoV-2 B.1.1.7 variant; assay type: cell-based
[3] = Cell viability in VeroE6, shortened 24 h infection assay; settings: African green monkey, VeroE6 cells infected with SARS-CoV-2, CC50 in shortened assay, VeroE6, 1 h preincubation, 24 h infection, top 10 μM
[4] = test system: SARS-CoV-2 B.1.1.7 variant; test: microbe, parasite or virus in culture; assay type: cell-based
[5] = Severe acute respiratory syndrome coronavirus 2, NCI-H1437, 48 h
[6] = Severe acute respiratory syndrome coronavirus 2, Vero C1008, 48 h
[7] = VeroE6, B.1.1.7, 156, 313, 625 nM niclosamide vs viral control

SMILES | IC50 (SARS-CoV-2 WA1 variant; read-out: H1437 (WA1) IC50) | IC50 [1] | H1437 (WA1) IC50 (SARS-CoV-2 WA1 variant) | also measured
O=C(Nc1ccc([N+](=O)[O-])cc1Cl)c1ccccc1O [Compound 2] | – | – | – | IC50 (SARS-CoV-2 WA1 variant; [5]): 4.92 µM; IC50 [1, 6]: 0.296 µM
Cc1ccc(O)c(C(=O)Nc2ccc([N+](=O)[O-])cc2Cl)c1 [Compound 3] | 2.6 µM | 1.25 µM | – | –
COc1ccc(O)c(C(=O)Nc2ccc([N+](=O)[O-])cc2Cl)c1 [Compound 4] | 10.9 µM | 1.77 µM | – | –
O=C(Nc1ccccc1Cl)c1cc(Cl)ccc1O [Compound 5] | > 20 µM | 0.89 µM | – | –
Cc1ccc(NC(=O)c2cc(Cl)ccc2O)c(Cl)c1 [Compound 6] | > 20 µM | 0.76 µM | – | –
COC(=O)c1ccc(NC(=O)c2cc(Cl)ccc2O)c(Cl)c1 [Compound 7] | – | – | Inverted | exacerbation of infection in H1437 (inverted concentration-response curves at high concentrations) (SARS-CoV-2 WA1 variant): exacerbate infection; IC50 [1, 6]: 0.334 µM
O=C(O)c1ccc(NC(=O)c2cc(Cl)ccc2O)c(Cl)c1 [Compound 8] | – | > 20 µM | Inverted | exacerbation of infection in H1437 (inverted concentration-response curves at high concentrations) (SARS-CoV-2 WA1 variant): exacerbate infection
O=C(Nc1ccc([N+](=O)[O-])cc1Cl)c1cccc(Cl)c1 [Compound 9] | – | – | complete loss of activity | IC50 (SARS-CoV-2 WA1 variant; [5]): > 20 µM; Vero-E6 (B.1.1.7) IC50 [1]: complete loss of activity; IC50 [1, 6]: > 20 µM
COc1ccc(NC(=O)c2cc(Cl)ccc2O)c(Cl)c1 [Compound 10] | – | 4.25 µM | Inverted | exacerbation of infection in H1437 (inverted concentration-response curves at high concentrations) (SARS-CoV-2 WA1 variant): exacerbate infection
CC(C)(C)c1ccc(O)c(C(=O)Nc2ccc([N+](=O)[O-])cc2Cl)c1 [Compound 11] | – | – | – | IC50 (SARS-CoV-2 WA1 variant; [5]): 3.1 µM; IC50 [1, 6]: 0.423 µM
COc1ccc(O)c(C(=O)Nc2ccc([N+](=O)[O-])cc2Cl)c1 [Compound 12] | 16.9 µM | 1.5 µM | – | –
COC(=O)c1ccc(NC(=O)c2cc(C(C)(C)C)ccc2O)c(Cl)c1 [Compound 13] | > 20 µM | > 20 µM | – | –
CC(C)(C)c1ccc(O)c(C(=O)Nc2ccc(C(=O)O)cc2Cl)c1 [Compound 14] | – | > 20 µM | Inverted | –
CC(C)(C)c1ccc(O)c(C(=O)Nc2ccc(C(=O)O)cc2F)c1 [Compound 15] | – | > 20 µM | Inverted | –
Cc1cc(C(=O)O)ccc1NC(=O)c1cc(C(C)(C)C)ccc1O [Compound 16] | – | > 20 µM | Inverted | –
CC(C)(C)c1cc(C(=O)Nc2ccc(NS(C)(=O)=O)cc2Cl)c(O)c(C(C)(C)C)c1 [Compound 18] | – | > 20 µM | Inverted | –

SMILES | IC50 (SARS-CoV-2 WA1 variant; read-out: H1437 (WA1) IC50) | IC50 [1] | H1437 (WA1) IC50 (SARS-CoV-2 WA1 variant) | also measured
CC(C)(C)c1cc(C(=O)Nc2ccc(N)cc2Cl)c(O)c(C(C)(C)C)c1 [Compound 19] | – | > 20 µM | Inverted | –
Cc1cc(NC(=O)c2cc(C(C)(C)C)cc(C(C)(C)C)c2O)ccc1C(=O)O [Compound 20] | > 20 µM | > 20 µM | – | –
COC(=O)c1ccc(NC(=O)c2cc(C3CCCCC3)ccc2O)c(Cl)c1 [Compound 21] | > 20 µM | 9.91 µM | – | –
O=C(O)c1ccc(NC(=O)c2cc(C3CCCCC3)ccc2O)c(Cl)c1 [Compound 22] | – | 4.51 µM | Inverted | exacerbation of infection in H1437 (inverted concentration-response curves at high concentrations) (SARS-CoV-2 WA1 variant): exacerbate infection
COC(=O)c1ccc(NC(=O)c2cc(C(F)(F)F)ccc2O)c(C)c1 [Compound 23] | > 20 µM | > 20 µM | – | –
N#Cc1ccc(NC(=O)c2cc(Cl)ccc2O)c(Cl)c1 [Compound 24] | – | – | – | IC50 (SARS-CoV-2 WA1 variant; [5]): 1.07 µM; IC50 [1, 6]: 0.348 µM
COC(=O)c1ccc(NC(=O)c2cccc(C(C)(C)C)c2O)c(Cl)c1 [Compound 25] | – | > 20 µM | Inverted | exacerbation of infection in H1437 (inverted concentration-response curves at high concentrations) (SARS-CoV-2 WA1 variant): exacerbate infection
CC(C)(C)c1cc(C(=O)Nc2ccc(C(=O)O)cc2Cl)c(O)c(C(C)(C)C)c1 [Compound 26] | > 20 µM | > 20 µM | – | –
Cc1cc(NC(=O)c2cc(C(C)(C)C)cc(C(C)(C)C)c2O)ccc1C(=O)O [Compound 27] | – | 16.5 µM | – | –
COc1ccc(O)c(C(=O)Nc2ccc(C(=O)O)cc2C)c1 [Compound 28] | – | > 20 µM | Inverted | –
CC(C)(C)c1cccc(C(=O)Nc2ccc(C(=O)O)cc2Cl)c1O [Compound 30] | – | > 20 µM | Inverted | –
CC(C)(C)c1cccc(C(=O)Nc2ccc([N+](=O)[O-])cc2Cl)c1O [Compound 31] | > 20 µM | > 20 µM | – | –
CC(C)(C)c1cccc(C(=O)Nc2ccc(N)cc2Cl)c1O [Compound 32] | > 20 µM | > 20 µM | – | –
CC(C)(C)c1cccc(C(=O)Nc2ccc(NS(C)(=O)=O)cc2Cl)c1O [Compound 33] | – | 2.88 µM | Inverted | exacerbation of infection in H1437 (inverted concentration-response curves at high concentrations) (SARS-CoV-2 WA1 variant): exacerbate infection
O=C(Nc1ccc(Br)cc1Cl)c1cc(Cl)ccc1O [Compound 34] | 3.49 µM | 0.76 µM | – | –
O=C(Nc1ccc([N+](=O)[O-])cc1Cl)c1cc(Cl)ccc1O [Niclosamide] | – | – | – | maximum size of syncytia (max area of viral objects) [2, 7]: decreased; number of individually infected cells within a well (viral objects per well) [2, 7]: reduced; N protein intensity of remaining viral objects ([2]; VeroE6, B.1.1.7, escalating concentrations 156, 313, 625 nM): increased; CC50 at 25 h [3]: > 10 µM; IC50 (SARS-CoV-2 WA1 variant; [5]): 16.8 µM; selectivity index (CC50/IC50), H1437 [4]: 1.67 and < 2; IC50 ([4]; Severe acute respiratory syndrome coronavirus 2, NCI-H1437): 0.261 µM; selectivity index (CC50/IC50), VeroE6 [1]: 1.86 and < 2; IC50 [1, 6]: 0.564 µM
